This passage reports KD, IC50 and Kd results from PMC6868041, “Evans Blue Inhibits HBV Replication Through a Dual Antiviral Mechanism by Targeting Virus Binding and Capsid Assembly” (Frontiers in Microbiology, 2019).

In one test the target is T1, BSA (Bos taurus, UniProt P02769).
T1 construct: gene ALB; commercial serum albumin, biotinylated, control protein
Description: biolayer interferometry (Octet RED). To be noted: negative control protein, biotinylated BSA on sensor; paper states no interaction; unreliable. The test is classed as binding.

Test [1] deals with T2, NTCP (recombinant His-tagged human NTCP; hNTCP) (Homo sapiens, UniProt Q14973).
T2 sequence (Q14973 1-349): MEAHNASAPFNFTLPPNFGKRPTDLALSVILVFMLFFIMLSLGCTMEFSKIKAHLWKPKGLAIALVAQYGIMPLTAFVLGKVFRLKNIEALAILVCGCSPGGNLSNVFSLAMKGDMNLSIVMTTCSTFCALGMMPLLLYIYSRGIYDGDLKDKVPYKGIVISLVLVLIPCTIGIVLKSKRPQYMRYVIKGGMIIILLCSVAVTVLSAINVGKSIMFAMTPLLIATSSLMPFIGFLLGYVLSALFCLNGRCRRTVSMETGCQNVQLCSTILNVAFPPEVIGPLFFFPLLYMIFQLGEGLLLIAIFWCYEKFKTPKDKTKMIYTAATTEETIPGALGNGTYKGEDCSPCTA
Description: inhibition of FITC-preS1-myr binding to Huh7D-hNTCP cells, high-content imaging. The test is classed as cell-based. Also noted: gene SLC10A1. The text has this: inhibition of FITC-preS1-myr binding to Huh7D-hNTCP cells, high-content imaging on NTCP (recombinant His-tagged human NTCP; hNTCP) | inhibited the binding of FITC-preS1 to cells in a concentration-dependent manner with an IC50

Test [2] concerns the target T2, NTCP (recombinant His-tagged human NTCP; hNTCP). Description: biolayer interferometry (Octet RED). The test is classed as binding. Also on record: gene SLC10A1; full-length from pEnter-hNTCP, His-tag, expressed in and purified from HEK293T, biotinylated for Octet. (In general: In BLI a coated tip is dipped into the sample, and binding shifts an interference pattern.)

T1 sequence (P02769 25-607): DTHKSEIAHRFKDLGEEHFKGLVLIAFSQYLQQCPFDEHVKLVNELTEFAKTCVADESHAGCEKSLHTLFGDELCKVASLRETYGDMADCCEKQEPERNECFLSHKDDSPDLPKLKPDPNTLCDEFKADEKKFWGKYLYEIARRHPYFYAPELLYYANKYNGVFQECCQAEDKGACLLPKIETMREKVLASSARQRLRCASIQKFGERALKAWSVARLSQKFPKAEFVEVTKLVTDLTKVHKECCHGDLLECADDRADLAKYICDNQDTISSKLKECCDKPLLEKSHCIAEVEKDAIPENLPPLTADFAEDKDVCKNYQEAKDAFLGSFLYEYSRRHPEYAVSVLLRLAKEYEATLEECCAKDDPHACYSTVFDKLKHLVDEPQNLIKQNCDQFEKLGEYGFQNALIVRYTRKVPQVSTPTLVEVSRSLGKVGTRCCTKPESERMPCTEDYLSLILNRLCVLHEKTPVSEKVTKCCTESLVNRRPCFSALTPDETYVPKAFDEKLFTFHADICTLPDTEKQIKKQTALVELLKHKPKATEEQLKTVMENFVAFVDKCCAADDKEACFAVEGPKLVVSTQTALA

As to `Cc1cc(-c2ccc(/N=N/c3ccc4c(S(=O)(=O)O)cc(S(=O)(=O)O)c(N)c4c3O)c(C)c2)ccc1/N=N/c1ccc2c(S(=O)(=O)O)cc(S(=O)(=O)O)c(N)c2c1O` [Evans blue], the KD (commonly the free concentration of one partner at which half of the binding sites on the other are occupied at equilibrium, for simple one-to-one binding) on BSA is 468 µM. Besides, the half-inhibitory concentration (IC50) – broadly, the concentration that inhibits the measured activity by half – in test [1] is about 5 µM. Also, in test [2], the dissociation constant (Kd) (in general, the concentration at which binding is half-saturated) stood at 0.0882 µM.
